Test results from patent publication US20260184697A1, “EZH1/2 INHIBITOR, PREPARATION THEREOF, AND USE THEREOF IN ANTI-TUMOR THERAPY” (JIANGSU TASLY DIYI PHARMACEUTICAL CO., LTD., priority 2022, published 2026).
Like-named read-outs stand apart in the source and are kept apart here.

Experiments:
[1] = tested on: H3K27Me3 methylation in Karpas-422 cells; assay: H3K27Me3 cell method, inhibition of H3K27Me3 methylation (Test Example 2); format: cell-based, human
Method: Karpas-422 (Nanjing Kebai, CBP60629) cells were seeded in a 96-well plate (Corning, 3894) at 15,000 cells per well in culture medium (80% 1640 (Hyclone, SH30809.01)+20% FBS (Corning, 35-081-CV)), and then added with different concentrations of compounds for treatment. The cell growth group without adding compounds is used as a positive control (maximum signal control), and the medium is used as a negative control (minimum signal control), while ensuring that in each reaction well, the final concentration of DMSO was 0.2%. Compounds and cells were incubated for 3 days in a cell culture incubator (37° C., 5% CO2). The 96-well plate was taken out from the cell culture incubator and equilibrated to room temperature, and 25 ul of cell suspension was taken out into a 384-well plate. The CCK8 (Beiyuntian, C0040) detection reagent was added, incubated at 37° C. for 1 h, and […] was detected. The rest of the cells followed the procedure of the kit EPIgeneous H3K27Me3 cellular kit (Cisbio, 62KC3PAE) to carry out experiment, read HTRF signal with BMG PHERAStar. […] By GraphPad Prism 6 with log(inhibitor)vs.response-Variable slope model simulation, the IC50 of the compound on cell activity inhibition was calculated. The fitting equation is: Y=Bottom+(Top−Bottom)/(1+10^((Log IC50−X)*HillSlope)), wherein Y represents the inhibition rate, and X represents the known concentration of the compound after Log.

Karpas-422 cells = assay: Anti-proliferation by Cell Titer-Glo method (Test Example 3); format: cell-based; conditions: Homo sapiens
Method: Karpas-422 (Nanjing Kebai, CBP60629) cells were seeded in a 96-well plate (Corning, 3894) at 1,000 cells per well in growth medium (80% 1640 (Hyclone, SH30809.01)+20% FBS (Corning, 35-081-CV)), in a total of 100 μL, and then was added with 25 μL of 5-fold different concentrations of compounds diluted in growth medium. The cell growth group without compound addition was used as a positive control (maximum signal control), and the medium was used as a negative control (minimum signal control), while ensuring that the final contration of DMSO in each reaction well was 0.2%. Then the 96-well cell plate was placed in a cell culture incubator (37° C., 5% CO2) and incubated for 3 days. On the fourth day, the cell culture plate was taken out of the incubator, using a row gun to gently blow the cells up and down to mix, removing 62.5 μL of the cell suspension, adding 50 μL of growth medium and 12.5 μL of compounds of 5 times different concentrations, and then putting them in the cell incubator to incubate for 4 days. On the eighth day, the same method was used as the fourth day to treat the cells, then incubating in the cell culture incubator for 3 days. On the eleventh day, the Cell-Titer Glo (Promega, G7573) was used to detect cell viability, and a microplate reader was used to detect the signal value of luminescence.
The inhibition rate of different concentrations of compounds on cells was calculated as inhibition rate=[1−(compound signal value−negative control signal value)/(positive control signal value-negative control signal value)][…]. The IC50 of the compound on cell activity inhibition was calculated by GraphPad Prism 6 with log(inhibitor) vs. response-Variable slope model fitting. The fitting equation is: Y=Bottom+(Top−Bottom)/(1+10^((Log IC50−X)*Hill Slope)), wherein Y represents the inhibition rate, and X represents the known concentration of the compound after Log.

EZH2/SUZ/EED = molecular target: T1, EZH2/SUZ/EED (Homo sapiens, UniProt O75530+Q15022+Q15910); assay: Inhibitory effect on EZH2 by the MTase-Glo method (Test Example 1); format: biochemical; conditions: EZH2/SUZ/EED 6.25 nM, H3 peptide 10 μM, SAM 3 μM, 30° C. 3 h, read-out: Test Example 1 WT EZH2 IC50
T1 construct: purchased BPS 51003
In short: (§1)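 EZH2/SUZ/EED (6.25 nM) or EZH1/SUZ/EED (25 nM) pre-incubated 15 min with compound in pH 7.6 Bicine buffer, 0.5% DMSO. Biotinylated H3(21-44) peptide 10 μM plus SAM 3 μM reacted 3 h at 30 °C; MTase-Glo luminescence normalized to controls, IC50 from variable-slope fit.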

EZH1/SUZ/EED = molecular target: T2, EZH1/SUZ/EED (Homo sapiens, UniProt O75530+Q15022+Q92800); assay: Inhibitory effect on EZH1 by the MTase-Glo method (Test Example 1); format: biochemical; conditions: EZH1/SUZ/EED 25 nM, H3 peptide 10 μM, SAM 3 μM, 30° C. 3 h, read-out: Test Example 1 WT EZH1 IC50
T2 construct: purchased BPS 51006
In short: as §1

[2] = Homo sapiens, KARPAS-422, 72 h, Karpas-422 cells, 3 days incubation, HTRF signal, read-out: Test Example 2 H3K27Me3 inhibition (Karpas-422) IC50
[3] = Karpas-422 cells, Cell-Titer Glo on the eleventh day, read-out: Test Example 3 Karpas-422 cell anti-proliferation IC50
[4] = KARPAS-422, read-out: Test Example 3 Karpas-422 cell anti-proliferation IC50(nM)
[5] = Karpas-422 cells, 3 days incubation, HTRF signal, read-out: Test Example 2 H3K27Me3 inhibition (Karpas-422) IC50
[6] = Homo sapiens, KARPAS-422, 72 h, read-out: Test Example 2 H3K27Me3 inhibition (Karpas-422) IC50(nM)

T1 sequence (Q15910 2-746 limits assumed): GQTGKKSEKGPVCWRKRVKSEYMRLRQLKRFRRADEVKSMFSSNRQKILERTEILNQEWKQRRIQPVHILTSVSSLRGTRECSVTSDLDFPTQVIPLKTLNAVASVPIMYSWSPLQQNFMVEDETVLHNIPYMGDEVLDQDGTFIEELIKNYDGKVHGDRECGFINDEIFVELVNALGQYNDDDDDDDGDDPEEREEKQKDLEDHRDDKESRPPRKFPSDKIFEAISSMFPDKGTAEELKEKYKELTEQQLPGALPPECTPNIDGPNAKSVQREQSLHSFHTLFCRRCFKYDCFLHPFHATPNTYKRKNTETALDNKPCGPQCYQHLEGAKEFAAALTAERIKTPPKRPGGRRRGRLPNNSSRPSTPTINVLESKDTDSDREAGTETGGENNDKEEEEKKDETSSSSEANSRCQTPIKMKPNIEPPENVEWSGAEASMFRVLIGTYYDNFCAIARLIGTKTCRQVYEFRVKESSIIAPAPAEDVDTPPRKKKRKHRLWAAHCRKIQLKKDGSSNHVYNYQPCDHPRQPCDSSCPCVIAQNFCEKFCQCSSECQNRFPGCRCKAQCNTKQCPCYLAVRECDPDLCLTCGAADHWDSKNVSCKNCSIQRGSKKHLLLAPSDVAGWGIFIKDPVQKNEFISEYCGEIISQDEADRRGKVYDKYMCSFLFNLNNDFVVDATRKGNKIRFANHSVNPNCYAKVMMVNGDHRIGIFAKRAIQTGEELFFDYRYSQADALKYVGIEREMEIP
T1 sequence (Q15022 2-739 partner limits assumed): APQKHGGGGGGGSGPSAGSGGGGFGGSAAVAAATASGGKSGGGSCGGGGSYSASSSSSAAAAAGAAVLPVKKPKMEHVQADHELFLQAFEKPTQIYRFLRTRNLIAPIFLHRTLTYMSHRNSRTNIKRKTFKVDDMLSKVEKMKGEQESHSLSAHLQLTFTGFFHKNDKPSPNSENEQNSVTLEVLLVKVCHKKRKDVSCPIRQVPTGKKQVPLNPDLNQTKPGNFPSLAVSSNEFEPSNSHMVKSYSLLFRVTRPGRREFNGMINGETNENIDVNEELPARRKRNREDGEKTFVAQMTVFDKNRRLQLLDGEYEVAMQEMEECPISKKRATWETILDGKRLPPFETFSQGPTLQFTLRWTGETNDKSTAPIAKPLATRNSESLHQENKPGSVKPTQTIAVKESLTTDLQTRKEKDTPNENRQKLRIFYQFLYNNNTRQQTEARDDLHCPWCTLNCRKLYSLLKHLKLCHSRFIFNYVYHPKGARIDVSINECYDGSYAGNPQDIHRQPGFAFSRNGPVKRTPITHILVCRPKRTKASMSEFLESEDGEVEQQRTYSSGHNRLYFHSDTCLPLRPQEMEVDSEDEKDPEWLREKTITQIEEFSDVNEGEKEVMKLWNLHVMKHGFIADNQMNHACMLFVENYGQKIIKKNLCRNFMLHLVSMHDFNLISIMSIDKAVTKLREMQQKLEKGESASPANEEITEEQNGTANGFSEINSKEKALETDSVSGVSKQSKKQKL
T1 sequence (O75530 2-441 partner limits assumed): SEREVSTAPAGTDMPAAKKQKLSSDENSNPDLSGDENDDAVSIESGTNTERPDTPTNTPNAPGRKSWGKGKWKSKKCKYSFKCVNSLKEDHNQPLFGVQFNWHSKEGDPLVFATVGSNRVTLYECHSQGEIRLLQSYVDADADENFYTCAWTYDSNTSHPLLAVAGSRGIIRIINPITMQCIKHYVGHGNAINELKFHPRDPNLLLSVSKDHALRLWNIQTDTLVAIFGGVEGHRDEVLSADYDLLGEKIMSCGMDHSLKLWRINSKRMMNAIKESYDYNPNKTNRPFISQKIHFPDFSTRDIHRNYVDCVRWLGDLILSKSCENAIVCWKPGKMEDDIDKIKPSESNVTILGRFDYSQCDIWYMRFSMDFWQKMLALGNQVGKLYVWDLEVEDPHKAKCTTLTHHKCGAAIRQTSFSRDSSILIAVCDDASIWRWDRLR
T2 sequence (Q92800 2-747 limits assumed): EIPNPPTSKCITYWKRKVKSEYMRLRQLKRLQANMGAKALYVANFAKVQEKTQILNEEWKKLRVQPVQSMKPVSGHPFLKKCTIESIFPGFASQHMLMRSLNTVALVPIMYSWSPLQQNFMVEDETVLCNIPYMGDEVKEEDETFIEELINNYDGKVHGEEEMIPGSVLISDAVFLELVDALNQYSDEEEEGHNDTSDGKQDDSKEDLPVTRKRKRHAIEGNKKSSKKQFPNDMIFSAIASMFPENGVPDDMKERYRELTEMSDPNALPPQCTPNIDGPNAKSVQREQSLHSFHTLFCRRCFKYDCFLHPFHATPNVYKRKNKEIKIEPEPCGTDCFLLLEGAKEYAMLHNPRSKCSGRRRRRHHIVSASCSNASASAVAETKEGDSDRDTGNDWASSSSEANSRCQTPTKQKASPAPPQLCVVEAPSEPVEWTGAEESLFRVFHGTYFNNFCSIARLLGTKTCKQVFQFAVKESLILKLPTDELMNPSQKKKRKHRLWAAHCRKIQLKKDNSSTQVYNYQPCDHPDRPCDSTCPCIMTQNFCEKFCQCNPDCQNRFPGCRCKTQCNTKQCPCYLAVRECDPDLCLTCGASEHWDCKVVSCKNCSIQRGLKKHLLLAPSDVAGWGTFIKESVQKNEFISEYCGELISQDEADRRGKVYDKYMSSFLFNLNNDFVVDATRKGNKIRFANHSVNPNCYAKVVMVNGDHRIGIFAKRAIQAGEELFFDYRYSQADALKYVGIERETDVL
T2 sequence (Q15022 2-739 partner limits assumed): as the sequence (Q15022 2-739 partner limits assumed) above
T2 sequence (O75530 2-441 partner limits assumed): as the sequence (O75530 2-441 partner limits assumed) above

SMILES | IC50 [1, 2] [nM] | IC50 (Karpas-422 cells; [3]) [nM] | IC50 (EZH2/SUZ/EED) [µM] | IC50 (EZH1/SUZ/EED) [µM] | also measured
CSc1cc(C)[nH]c(=O)c1CNC(=O)c1cc(Cl)c2c(c1C)O[C@@H]([C@H]1CC[C@@H](N3CC(CF)C3)CC1)CO2 [Compound 34] | 6.2 | 5.8 | – | – | –
COc1cc(C)[nH]c(=O)c1CNC(=O)c1cc(Cl)c2c(c1C)O[C@@H]([C@H]1CC[C@@H](N3CC[C@@H](OC)C3)CC1)CO2 [Compound 121] | 92.3 | 35.8 | – | – | –
Cc1cc(Cl)c(CNC(=O)c2cc(Cl)c3c(c2C)O[C@@H]([C@H]2CC[C@@H](N(C)C)CC2)CO3)c(=O)[nH]1 [Compound 173] | – | 124 | – | – | –
COC1CN([C@H]2CC[C@H]([C@H]3COc4c(F)cc(C(=O)NCc5c(SC)cc(C)[nH]c5=O)c(C)c4O3)CC2)C1 [Compound 170] | – | 46.8 | – | – | –
COc1cc(C)[nH]c(=O)c1CNC(=O)c1cc(Cl)c2c(c1C)O[C@@H]([C@H]1CC[C@@H](N3CC[C@H](OC)C3)CC1)CO2 [Compound 119] | – | 12.9 | – | – | –
COc1cc(C)[nH]c(=O)c1CNC(=O)c1cc(Cl)c2c(c1C)O[C@@H]([C@H]1CC[C@@H](OCCF)CC1)CO2 [Compound 179] | – | 36.6 | – | – | –
Cc1c(C(=O)NCC2COC2)cc(Cl)c2c1O[C@@H]([C@H]1CC[C@@H](N(C)C)CC1)CO2 [Compound 167] | – | – | – | – | IC50 (Karpas-422 cells; [4]): > 1000 nM
COc1cc(C)[nH]c(=O)c1CNC(=O)c1cc(Cl)c2c(c1C)O[C@@H]([C@H]1CC[C@H](N3CC[C@@H](OC)C3)CC1)CO2 [Compound 122] | – | 472 | – | – | –
Cc1c(C(=O)NCC2COC2)cc(Cl)c2c1O[C@@H]([C@H]1CC[C@H](N(C)C)CC1)CO2 [Compound 168] | – | – | – | – | IC50 (Karpas-422 cells; [4]): > 1000 nM
COC1CN([C@H]2CC[C@@H]([C@@H]3COc4c(F)cc(C(=O)NCc5c(SC)cc(C)[nH]c5=O)c(C)c4O3)CC2)C1 [Compound 172] | – | 373 | – | – | –
Cc1cc(Cl)c(CNC(=O)c2cc(Cl)c3c(c2C)O[C@@H]([C@H]2CC[C@H](N(C)C)CC2)CO3)c(=O)[nH]1 [Compound 174] | – | 5.6 | 0.0031 | 0.0072 | –
COC1CN([C@H]2CC[C@H]([C@H]3COc4c(Cl)cc(C(=O)NCc5c(Cl)cc(C)[nH]c5=O)c(C)c4O3)CC2)C1 [Compound 176] | – | 197 | – | – | –
[2H]C1(OC)CN([C@H]2CC[C@@H]([C@H]3COc4c(Cl)cc(C(=O)NCc5c(SC)cc(C)[nH]c5=O)c(C)c4O3)CC2)C1 [Compound 22] | 1.8 | – | 0.0021 | 0.0023 | –
COc1cc(C)[nH]c(=O)c1CNC(=O)c1cc(Cl)c2c(c1C)O[C@@H]([C@H]1CC[C@H](OCCF)CC1)CO2 [Compound 180] | – | 10.8 | – | – | –
CSc1cc(C)[nH]c(=O)c1CNC(=O)c1cc(Cl)c2c(c1C)O[C@@H]([C@H]1CC[C@H](N3CC(CF)C3)CC1)CO2 [Compound 35] | 60.5 | – | 0.0034 | 0.0074 | –
Cc1cc(C)c(CNC(=O)c2cc(Cl)c3c(c2C)OC(C2CCC(N4CC(OC5CC5)C4)CC2)CO3)c(=O)[nH]1 (single isomer, unassigned) [Compound 77] | – | – | 0.0273 | 0.142 | IC50 [1, 5]: 260 nM
COCCN(C)[C@H]1CC[C@@H]([C@H]2COc3c(Cl)cc(C(=O)NCc4c(OC)cc(C)[nH]c4=O)c(C)c3O2)CC1 [Compound 107] | 56.9 | – | 0.0032 | 0.0178 | –
Cc1cc(C)c(CNC(=O)c2cc(Cl)c3c(c2C)OC(C2CCC(N(C)C)CC2)C(C)O3)c(=O)[nH]1 (stereo not drawn) [Compound 124] | – | – | 0.0161 | 0.326 | IC50 [1, 6]: 133 nM
Cc1cc(C)c(CNC(=O)c2cc(Cl)c3c(c2C)OC(C2CCC(N4CC5COCC5C4)CC2)CO3)c(=O)[nH]1 (single isomer, unassigned) [Compound 59] | – | – | 0.0096 | 0.007 | IC50 [1, 5]: 233 nM
Cc1cc(C)c(CNC(=O)c2cc(Cl)c3c(c2C)O[C@@H]([C@H]2CC[C@@H](N4CC5COCC5C4)CC2)CO3)c(=O)[nH]1 (stereo partly drawn) [Compound 73] | > 1000 | – | 0.0513 | 0.196 | –
Cc1cc(C)c(CNC(=O)c2cc(Cl)c3c(c2C)OC(C2CCC(NC4CC(F)C4)CC2)CO3)c(=O)[nH]1 (single isomer, unassigned) [Compound 64] | 896 | – | 0.0166 | 0.254 | –
COc1cc(C)[nH]c(=O)c1CNC(=O)c1cc(Cl)c2c(c1C)O[C@@H]([C@H]1CC[C@H](N3CC[C@H](OC)C3)CC1)CO2 [Compound 120] | – | 31.5 | – | – | –
Cc1cc(C)c(CNC(=O)c2c(C)c3c(c(Cl)c2F)OC[C@H]([C@H]2CC[C@@H](N(C)C)CC2)O3)c(=O)[nH]1 [Compound 131] | 43.3 | – | 0.0031 | 0.0468 | –
Cc1cc(C)c(CNC(=O)c2cc(Cl)c3c(c2C)OC(C2CCC(N4CC(F)(F)C4)CC2)CO3)c(=O)[nH]1 (single isomer, unassigned) [Compound 58] | – | – | 0.0358 | 2.3 | IC50 [1, 5]: > 1000 nM
COCCN1CCC([C@H]2COc3c(Cl)cc(C(=O)NCc4c(SC)cc(C)[nH]c4=O)c(C)c3O2)CC1 [Compound 17] | 12 | – | 0.0046 | 0.0165 | –
Cc1cc(C)c(CNC(=O)c2cc(Cl)c3c(c2C)OC(C2CCC(N4CC(F)C4)CC2)CO3)c(=O)[nH]1 (single isomer, unassigned) [Compound 70] | 201 | – | 0.0221 | 0.177 | –
CSc1cc(C)[nH]c(=O)c1CNC(=O)c1cc(Cl)c2c(c1C)O[C@@H](C1CCN(CCF)CC1)CO2 [Compound 24] | 9.8 | – | 0.0045 | 0.0092 | –
COc1cc(C)[nH]c(=O)c1CNC(=O)c1cc(Cl)c2c(c1C)O[C@@H]([C@H]1CC[C@H](N3CC(OCCF)C3)CC1)CO2 [Compound 110] | 21.3 | – | 0.0027 | 0.0154 | –
Cc1cc(C)c(CNC(=O)c2cc(Cl)c3c(c2C)CC(C)(C2CCC(N(C)C)CC2)O3)c(=O)[nH]1 (stereo not drawn) [Compound 181] | – | – | 0.0304 | 1.35 | IC50 [1, 6]: 410 nM
